Entries after “also recorded” stand apart in the source; their conditions may differ.
How the values were obtained:
[1] = test system: Human pulmonary artery EC; test: Transendothelial electrical resistance (TER) of HA-treated EC monolayers, Example 1; type: cell-based; details: for change in transmonolayer electrical resistance (TER): 1 nM, 10 nM or 100 nM HA, serum starved EC; for effect of pretreatment of HA by boiling or proteinase K digestion on HA-induced EC TER: HA boiled or proteinase K digested; for effect of hyaluronidase SD treatment of HA on HA-induced EC TER: HA treated with hyaluronidase SD
Procedure: Measurement of TransEC Electrical Resistance (TER)—EC were grown to confluence in polycarbonate wells containing evaporated gold microelectrodes. TER measurements were performed using an electrical cell-substrate impedance sensing system (Applied Biophysics, Troy, N.Y.) as described (Garcia et al., 2001). TER values from each microelectrode were pooled at discrete time points and plotted versus time as the mean±S.E.

Human pulmonary EC [2] = test: TER, Example 5; type: cell-based; details: for change in TER: human pulmonary EC, Example 5
Procedure: (§1) Measurement of TransEC Electrical Resistance (TER). EC were grown to confluence in polycarbonate wells containing evaporated gold microelectrodes, and TER measurements performed using an electrical cell-substrate impedance sensing system (Applied Biophysics, Troy, N.Y.) as previously described (Garcia et al., 2001). TER values from each microelectrode were pooled at discrete time points and plotted versus time as the mean±S.E.

purified HABP2 = biological target: T1, purified HABP2 (Homo sapiens, UniProt Q14520); test: HABP2 protease assay (QuantiCleave, succinylated casein); type: biochemical; details: purified HABP2, various concentrations of HA
T1 construct: host or cells: human pulmonary endothelial cells (EC); secreted into the medium, immunoprecipitated with anti-HABP2 antibody
Procedure: HABP2 protease assay. Protease activity is measured using the QuantiCleave™ Protease Assay Kit (Pierce). Briefly, the immunobeads are incubated with succinylated casein for one hour followed by development with TNBSA (2,4,6-trinitrobenzene sulfonic acid) and read at 450 nm.
HABP2 protein purification and protease activity determination. Media from HABP2 overexpression vector-transfected EC (Origene) was immunoprecipitated with anti-HABP2 antibody-conjugated Sepharose beads (Sigma). The immunobeads were then extensively washed in 50 mM Borate, pH=8.5 and eluted with 1M NaCl with 0.1% NP-40 and dialyzed against a 1,000 fold excess of 50 mM Borate, pH=8.5. Protein assays were performed to quantitate total protein. The purified protein was run on SDS-PAGE and either immunoblotted with anti-HABP2 antibody (Novus Biologicals) or stained with Imperial™ protein stain (Pierce) to check for purity. Protease activity was measured using the QuantiCleave™ Protease Assay Kit (Pierce). Briefly, the immunobeads were incubated with succinylated casein for one hour followed by development with TNBSA (2,4,6-trinitrobenzene sulfonic acid) and read at 450 nm.
Determination of the role of HMW-HA/HABP2/C1INH interactions in regulating angiogenesis in vitro. Human pulmonary EC (Cambrex), grown in EBM-2 complete medium (Cambrex) at 37° C. in a humidified atmosphere of 5% CO2, 95% air, with passages 6-10 used for experimentation will be treated with or without 100 nM HMW-HA and/or 100 nM VEGF in the presence or absence of HABP2 and/or C1INH overexpression vectors (Origene), exogenous purified recombinant HABP2 polyanion binding domain and/or C1INH (Novus Biologicals) and/or siRNA (scramble, HABP2 or C1INH). For HABP2 protease activity determination, media from HABP2 overexpressing EC (see above) was immunoprecipitated with anti-HABP2 antibody-conjugated Sepharose beads (Sigma). The immunobeads were then extensively washed in 50 mM Borate, pH=8.5 and protease activity was measured using the QuantiCleave™ Protease Assay Kit (Pierce). Briefly, the immunobeads were incubated with succinylated casein for one hour followed by development with TNBSA (2,4,6-trinitrobenzene sulfonic acid) and read at 450 nm.

Human pulmonary EC [3] = test: TER, HABP2/C1INH regulation of EC barrier function (Examples 3 and 6); type: cell-based; details: 100 nM HA or 10 μg/ml purified HABP2
Procedure: as §1, with “transendothelial monolayer electrical resistance” for “TransEC Electrical Resistance”, “obtained from Applied Biophysics (Troy,” for “(Applied Biophysics, Troy,”, “described in detail” for “described”, “al.” for “al.,”
Determination of EC barrier function. Human pulmonary endothelial cells were grown to confluence in polycarbonate wells containing evaporated gold microelectrodes (surface area, 10-3 cm^2) in series with a large gold counter electrode (1 cm^2) connected to a phase-sensitive lock-in amplifier as described previously. Measurements of transendothelial electrical resistance (TER) were performed using an electrical cell-substrate impedance sensing system (ECIS) (Applied BioPhysics Inc.). Briefly, current was applied across the electrodes by a 4,000-Hz AC voltage source with amplitude of 1 V in series with a 1 MS/resistance to approximate a constant current source (˜1 μA). The in-phase and out-of-phase voltages between the electrodes were monitored in real time with the lock-in amplifier and subsequently converted to scalar measurements of transendothelial impedance, of which resistance was the primary focus. TER was monitored for 30 minutes to establish a baseline resistance (R0) which, for pulmonary endothelium, was typically between 8 to 12×10^3Ω (wells with R0<7×10^3Ω were rejected). As cells adhere and spread out on the microelectrode, TER increases (maximal at confluence), whereas cell retraction, rounding, or loss of adhesion was reflected by a decrease in TER. These measurements provide a highly sensitive biophysical assay that indicates the state of cell shape and focal adhesion. Values from each microelectrode were pooled at discrete time points and plotted versus time as the mean±SE of the mean (Garcia et al., 2001).

RhoA and Rac = test: Rho family activation assay; type: cell-based, human; details: 100 nM HA; for Rac1 activation: LMW-HA 5 min, HMW-HA 5, 15, 30 min
Procedure: Rho Family Activation Assay—The RhoA and Rac activation assays using human lung EC were performed as described (Ren et al., 1999).

S1P1 and S1P3 Receptor = test: Tyrosine/serine/threonine phosphorylation of S1P receptors; type: cell-based, human; details: 100 nM HA
Procedure: Determination of Tyrosine/Serine/Threonine Phosphorylation of the S1P1 and S1P3 Receptor—Immunoprecipitation of solubilized proteins in IP buffer B (see above) took place with either rabbit anti-S1P1 receptor or mouse anti-S1P3 receptor antibody, which was followed by SDS-PAGE in 4-15% polyacrylamide gels and transfer onto Immobilon™ membranes (Millipore Corp., Bedford, Mass.). Following blockage of nonspecific sites with 5% bovine serum albumin, the blots were incubated with either rabbit anti-S1P1 antibody, mouse anti-S1P3 antibody, mouse anti-phospho-tyrosine, rabbit anti-phospho-serine antibody or rabbit anti-phospho-threonine antibody, and then incubated with horseradish peroxidase (HRP)-labeled goat anti-rabbit or goat anti-mouse IgG. Enhanced chemiluminescence (Amersham Biosciences) for visualization of immunoreactive bands then took place.

T1 sequence (Q14520 24-560): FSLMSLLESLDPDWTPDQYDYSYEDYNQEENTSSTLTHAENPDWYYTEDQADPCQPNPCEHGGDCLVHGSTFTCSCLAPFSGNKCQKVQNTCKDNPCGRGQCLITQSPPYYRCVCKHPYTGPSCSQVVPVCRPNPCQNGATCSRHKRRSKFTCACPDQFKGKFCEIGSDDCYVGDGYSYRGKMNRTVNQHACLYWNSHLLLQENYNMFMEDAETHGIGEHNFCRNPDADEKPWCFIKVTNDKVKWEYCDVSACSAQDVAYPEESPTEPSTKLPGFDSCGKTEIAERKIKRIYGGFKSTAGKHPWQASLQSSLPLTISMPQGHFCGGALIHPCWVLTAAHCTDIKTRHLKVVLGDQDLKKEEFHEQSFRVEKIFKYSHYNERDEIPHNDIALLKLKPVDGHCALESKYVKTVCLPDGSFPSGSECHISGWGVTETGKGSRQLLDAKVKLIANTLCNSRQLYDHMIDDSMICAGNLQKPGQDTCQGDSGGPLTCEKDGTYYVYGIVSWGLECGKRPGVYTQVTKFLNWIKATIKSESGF

Row | effect of pretreatment of HA by boiling or proteinase K digestion on HA-induced EC TER [1] | effect of hyaluronidase SD treatment of HA on HA-induced EC TER ([1]; listed as High MW HA) | HABP2 protease activity (purified HABP2) | HABP2 protease activity (purified HABP2; listed as high MW hyaluronan) | effect of hyaluronidase SD treatment of HA on HA-induced EC TER ([1]; listed as Low MW HA) | Substance | change in transmonolayer electrical resistance (TER) [1] | time at which HMW-HA-induced increase in TER reached plateau (Human pulmonary EC [2]) [h] | protection from LPS-induced EC barrier disruption (TER) (Human pulmonary EC [2]; HMW-HA (100 ng/ml), at 6 hours) | change in TER (Human pulmonary EC [2]; listed as High MW HA) | HABP2 protease activity (purified HABP2; listed as High molecular weight hyaluronan) | change in TER / EC barrier function (Human pulmonary EC [3]; listed as High MW hyaluronan) | Rac1 activation (RhoA and Rac) | S1P receptor phosphorylation (S1P1 and S1P3 Receptor) | change in TER (Human pulmonary EC [2]; listed as low MW HA) | HABP2 protease activity (purified HABP2; listed as low MW hyaluronan) | change in TER / EC barrier function (Human pulmonary EC [3]; listed as low MW hyaluronan) | RhoA activation (RhoA and Rac; 15-30 min)
1 | little effect | blocked the effects of High MW HA | inhibits | reduced its activity | – | hyaluronan [HMW-HA] | gradual and sustained rise in transmonolayer electrical resistance (TER) in a dose-dependent fashion | ~3 | protects from LPS-induced EC barrier disruption | dose-dependent increase in TER | directly binds and inhibits the enzymatic activity of HABP2 | increased transendothelial monolayer electrical resistance (TER) | induced Rac1 activation | promoted AKT1-mediated threonine phosphorylation of S1P1 receptor | – | – | – | –
2 | little effect | – | activates; also recorded: enhances | – | blocked the effects of Low MW HA | hyaluronan [LMW-HA, reference compound] | biphasic changes in TER with an initial rapid increase in barrier enhancement followed by significant and prolonged barrier disruption | – | – | – | – | – | induced Rac1 activation | induced sequential AKT1-mediated S1P1 and Src/ROCK1/2-mediated S1P3 receptor phosphorylation/activation | biphasic response ultimately leading to EC barrier disruption | increased the protease activity of purified HABP2 in a dose-dependent manner | induced negative TER changes ultimately resulting in EC barrier disruption | promoted RhoA activation
